The numbers were not newly measured in patent US20110009348A1, “CARBOHYDRATE GEL” (priority 2008, published 2011), which cites them from elsewhere.

This data set concerns male cyclists. Particulars: comparison values given in text, source not stated.

Turning to `O=C(CO)[C@@H](O)[C@H](O)[C@H](O)CO` [fructose], the “peak oxidation achieved with a single carbohydrate source” value is on record as about 0.4 g/min.
